Series [1] deals with Fas receptors on HUVECs. As to the kind of experiment: Immunostaining of surface Fas receptors on HUVECs. The note with it: 2 hours; regardless of the treatment. Format: cell-based. How it is done: (§1) FIGS. 2A-2E: Fas receptor expression on the cancer cell surface. FIG. 2A: Addition of either Fasudil, Blebbistatin, or GW5074 to the cell culture medium for 2 hours increased the Fas receptor staining on the cancer cells, but not on HUVECs. […] Fold increase of Fas staining density as response to treatment with FIG. 2C: Fasudil, FIG. 2D: Blebbisatin, and FIG. 2E: GW5074.
(§2) It was speculated that the active Raf-1, due to increased intracellular tension in cancer cell, can cause lack of Fas receptors on the cell surface and that either inhibition of Raf-1 or reduction of mechanical tension in the cytoskeleton can restore the Fas receptors on cell surface. To test this theory, U87 (glioblastoma), A549 (non-small cell lung cancer, resistant to apoptosis, FAS ligand alone increases proliferation), HepG2 (liver cancer), PC3 (prostate cancer), and SUM159 (triple negative breast cancer) cells were treated either with 20 μM Raf-1 inhibitor GW5074, 40 μM ROCK inhibitor Fasudil, or 10 μM myosin inhibitor Blebbistatin for 2 hours.

In series [2] the test system is surface Fas receptors of cancer cells (U87, A549, HepG2, PC3, and SUM159 cells). Briefly: Immunostaining of surface Fas receptors on cancer cells. Format: cell-based. The note with it: 2 hours; 40 μM Fasudil, 10 μM Blebbistatin or 20 μM GW5074; range over U87, A549, HepG2, PC3, SUM159. How it is done: as §1
In the present study, the effect of the ROCK inhibitor Fasudil, Myosin-II inhibitor Blebbistatin, or the Raf-1 inhibitor GW5074 on Fas receptor translocation on surface of U87, A549, HepG2, PC3, and SUM159 cells was evaluated. The effect of these drugs on cell viability when used alone or in combination with exogenous, recombinant Fas ligand was analyzed. Next, the effects of Fasudil and Fas ligand combination on glioblastoma growth and on viability of non-cancerous cells in engineered brain organoids was investigated. Finally, the in vivo efficacy of the Fasudil-Fas ligand combination on preventing tumor growth in a xenograft U87 tumor model in nude mice was tested.
as §2

The subject of series [3] is U87 cells. The class given is cell-based. The following applies: for cell viability in U87 cells, drug combined with Fas ligand: Fas ligand 400 ng/mL with 40 μM Fasudil, 10 μM Blebbistatin or 20 μM GW5074. An excerpt: FIGS. 3A-3E: Fortified Fas-mediated apoptosis in cancer cells. […] FIG. 3B: representative light microscopy images of U87 cells showing the effect of Fasudil-Fas ligand combination. For the other cancer cell types see FIG. 7. Fasudil-Fas ligand combination decreased the viability of A549, HepG2, SUM159, PC3, and BT549 cells synergistically (FIGS. 3C-3D).
(§3) After showing that Fas receptor expression on the cell surface can be increased with different ques targeting cytoskeletal tension, the Fas-mediated apoptosis triggered by the exogenous Fas ligand when combined with Fasudil, Blebbistain, or GW5074 was studied. The cell viability by quantifying the ATP level present in the cell culture medium after 48 hours of treatment was assessed.

Series [4] concerns U87 xenograft tumor. Briefly: U87 xenograft tumor model in nude mice. Format: in vivo. The note with it: for average tumor size: one month after tumor initiation, intraperitoneal injection twice a week for four weeks; for median survival probability: terminal point 1000 mm^3. Here is the method:
Further, the anti-tumor efficacies of Fas ligand and Fasudil combination using a U87 xenograft tumor model in nude mice were evaluated. Fas ligand and Fasudil were administrated by intraperitoneal injection when the subcutaneous tumor grew to palpable size >50 mm^3 twice a week for four weeks. The mice were primed with either Fasudil or saline 24 hours before the injection of Fasudil and Fas ligand together. Only Fasudil, only Fas ligand, and only saline injections were made in the control groups. 7-10 mice with tumor volumes ranging from 50-200 mm^3 were randomly assigned to each treatment arm. Terminal point for the tumor growth was determined as 1000 mm^3.

Series [5] has as its system BT549 cells. The class given is cell-based. How it is done:
as §3

Series [6] concerns HepG2 cells. The class given is cell-based. Here is the method: as §3
Series [7] relates to PC3 cells. The class given is cell-based. How it is done:
as §3

Series [8] relates to A549 cells. The class given is cell-based. Here is the method:
as §3

For series [9], the system named is SUM159 cells. Format: cell-based. How it is done: as §3

`Cc1ccc2c(c1)C(=O)C1(O)CCN(c3ccccc3)C1=N2` (stereo not shown) [Blebbistatin, blebbistatin]: the “Fas staining of HUVECs” value in [1] is listed as “negligible”. For the same molecule, the “increase of immunostaining of surface Fas receptors of cancer cells” value in series [2] is reported as 1.76-2.15 folds. Moreover, the “cell viability in U87 cells, drug combined with Fas ligand” value in series [3] was “decreased cell viability significantly”.
The matching figures for `O=C1Nc2ccc(I)cc2/C1=C/c1cc(Br)c(O)c(Br)c1` [GW5074]: “negligible”, 1.62-2.30 folds and “decreased cell viability significantly”.
On to `O=S(=O)(c1cccc2cnccc12)N1CCCNCC1` [Fasudil, fasudil], for which the “Fas staining of HUVECs” value in [1] was “negligible”. Further, in series [4], the average tumor size stood at 584.4±113.8 mm3 and the median survival probability was determined as 28%. For the same molecule, in series [2], the “increase of immunostaining of surface Fas receptors of cancer cells” value is 2.12-3.28 folds. For the same molecule, in series [3], the “cell viability in U87 cells, drug combined with Fas ligand” value was “decreased cell viability significantly”.

B1: Fas ligand: human recombinant Fas ligand, protein having the amino acid sequence SEQ ID NO: 1 (protein, listed as Homo sapiens)
chain: MQQPFNYPYPQIYWVDSSASSPWAPPGTVLPCPTSVPRRPGQRRPPPPPPPPPLPPPPPPPPLPPLPLPPLKKRGNHSTGLCLLVMFFMVLVALVGLGLGMFQLFHLQKELAELRESTSQMHTASSLEKQIGHPSPPPEKKELRKVAHLTGKSNSRSMPLEWEDTYGIVLLSGVKYKKGGLVINETGLYFVYSKVYFRGQSCNNLPLSHKVYMRNSKYPQDLVMMEGKMMSYCTTGQMWARSSYLGAVFNLTSADHLYVNVSELSLVNFEESQTFFGLYK
As to B1, the cell viability in series [5] was 58.0 % of the control; in [6], 44.6 % of the control; in series [7], 80.2 % of the control; in series [8], 67.8 % of the control; in [9], 59.9 % of the control; in series [3] it was 55.6 % of the control. For the same molecule, in [4], the average tumor size amounted to 602.2±195.7 mm3. For the same molecule, the median survival probability in [4] came to 27%.

The record behind these values is US20240350512A1, “CYTOSKELETAL TENSION REGULATORS AND FAS LIGAND-COMBINATION COMPOSITIONS AND METHODS OF TREATMENT USING THE SAME” (Yale University, priority 2021, published 2024).
